# According to patent publication US5340565A, “Tumor or cancer cell killing therapy and agents useful therefor” (priority 1992, dated 1994):
# Like-named read-outs stand apart in the source and are kept apart here.
# Legend:
# [1] = tested on: ADPRT; conditions: Sims et al, Biochem. 21:1813-1821, 1982; cited from earlier work
# [2] = tested on: human squamous cell carcinoma (SCC) (ABII) of the head and neck xeno-grafted to nude mice; assay: Growth of human SCC (ABII) xenografted to nude mice, CDDP with or without metoclopramide; assay type: in vivo; conditions: for Reduction in AUC (area under plotted tumor growth curves), agent given alone: schedules A and B, metoclopramide 2.0 mg/kg i.p. (x1 or x3), CDDP 7.5 mg/kg i.p.
# Protocol: Cisplatin (cis-diamine-dichloroplatinum=CDDP) is a heavy metal complex with alkylating properties which allow bifunctional linking to DNA. CDDP has been used successfully as a chemotherapeutic agent to treat several types of human cancers. Since CDDP treatment regimes induce nausea and vomiting, metoclopramide is often co-administered therewith as an antiemetic drug.
# Two administration schedules were tested: (A) metoclopramide (2.0 mg/kg i.p.) one hour before CDDP (7.5 mg/kg i.p.) and (B) metoclopramide (2.0 mg/kg×3 treatment times) given separately concomitant to CDDP (7.5 mg/kg i.p.) and 24 hr and 48 hr after CDDP administration. In both schedules the combined treatment was compared with CDDP alone, metoclopramide alone and with physiologic saline treated tumor bearing animals (controls). The tumor line used was a poorly difterentiated human SSC originating from the nose. There were n=10 animals in each group. Tumor diameters and animal weight were recorded and plotted twice weekly for 21 days. Treatment efficacies were compared using the area under the plotted growth curves (AUC).
# [3] = tested on: ADPRT (adenosine diphosphate ribosyl transferase); assay: ADPRT activity in permeabilized HML after 30 min exposure; assay type: cell-based, human; conditions: average of duplicates
# Protocol: The data were recorded as cpm TCA precipitable [^3 H]NAD per 1×10^6 cells.
# [4] = Cytotoxicity by trypan blue exclusion in HML; assay type: cell-based; conditions: human, mononuclear leukocytes
# [5] = tested on: Human mononuclear leukocytes (HML); assay: Cytotoxicity by trypan blue exclusion in HML; assay type: cell-based; conditions: for % Dead Cells 30 min: 0.5 h
# [6] = tested on: adenocarcinoma transplanted in C3H mice; conditions: dose of 10 mg/kg, Kjellen and Pero 1987 abstract; cited from earlier work
# [7] = tested on: calmodulin; conditions: cited from earlier work
# [8] = 100 μM agent, 30 min incubation, HML, read-out: % Dead Cells 30 min
# [9] = 500 μM agent, 30 min incubation, HML, read-out: % Dead Cells 30 min
compound,measurement,setting,value
Nc1cccc(C(=O)O)c1 [3-aminobenzoic acid],Inhibition of ADPRT,[1],failed to inhibit ADPRT
Nc1ccc(C(=O)O)cn1 [6-amino nicotinic acid],Inhibition of ADPRT,[1],failed to inhibit ADPRT
"N.N.[Cl][Pt][Cl] [CDDP, cis-diamine-dichloroplatinum]",AUC as % of control tumor growth,"[2]; schedule B: CDDP 7.5 mg/kg i.p., metoclopramide 2.0 mg/kg x3 (concomitant, 24 hr, 48 hr), 21 days",72 % of control tumor growth
same,"Reduction in AUC (area under plotted tumor growth curves), agent given alone",[2]; 21 days,significant reduction of AUC-values
"CN(C)CCCN1c2ccccc2Sc2ccc(Cl)cc21 [Chlorpromazine, 2chloro-N,N-dimethyl-10H-phenothiazine-10-propanamine]",ADPRT Activity,[3]; 100 μM agent,1508 cpm TCA precipitable [3H]NAD p
same,ADPRT Activity,[3]; 500 μM agent,890 cpm TCA precipitable [3H]NAD p
same,"cytotoxicity at 0.5 h, 100 µM",[4]; [8],50%
same,"cytotoxicity at 0.5 h, 500 µM",[4]; [9],100%
CC(CN1CCN(CCOCCO)CC1)CN1c2ccccc2Sc2ccccc21 (centres unmarked) [Dixyrazine],ADPRT Activity,[3]; 100 μM agent,385 cpm TCA precipitable [3H]NAD p
same,ADPRT Activity,[3]; 500 μM agent,850 cpm TCA precipitable [3H]NAD p
same,"cytotoxicity at 0.5 h, 100 µM",[4]; [8],13%
same,"cytotoxicity at 18 h, 100 µM","[4]; 100 μM agent, 18 hr incubation, HML, read-out: % Dead Cells 18 hr",78%
same,"cytotoxicity at 0.5 h, 500 µM",[4]; [9],79%
same,"cytotoxicity at 18 h, 500 µM","[4]; 500 μM agent, 18 hr incubation, HML, read-out: % Dead Cells 18 hr",100%
OO [H2 O2],ADPRT Activity,[3]; 100 μM agent,1800 cpm TCA precipitable [3H]NAD p
same,ADPRT Activity,[3]; 300 μM agent,2700 cpm TCA precipitable [3H]NAD p
same,ADPRT Activity,[3]; 500 μM agent,2900 cpm TCA precipitable [3H]NAD p
same,ADPRT Activity,[3]; 1000 μM agent,3000 cpm TCA precipitable [3H]NAD p
same,% Dead Cells 30 min,[5]; 100 µM,5%
same,% Dead Cells 30 min,[5]; 300 µM,5%
same,% Dead Cells 30 min,[5]; 500 µM,7%
same,% Dead Cells 30 min,[5]; 1000 µM,12%
same,% Dead Cells 18 hr,[5]; 100 µM,40%
same,% Dead Cells 18 hr,[5]; 300 µM,41%
same,% Dead Cells 18 hr,[5]; 500 µM,55%
same,% Dead Cells 18 hr,[5]; 1000 µM,71%
"CCN(CC)CCNC(=O)c1cc(Cl)c(N)cc1OC [Metoclopramide, 4-amino-5-chloro-N-[(2-diethylamino)ethyl]-2-methoxy-benzamide]",ADPRT Activity,[3]; 500 μM agent,530 cpm TCA precipitable [3H]NAD p
same,ADPRT Activity,[3]; 2000 μM agent,703 cpm TCA precipitable [3H]NAD p
same,ADPRT Activity,[3]; 5000 μM agent,950 cpm TCA precipitable [3H]NAD p
same,ADPRT Activity,[3]; 10000 μM agent,870 cpm TCA precipitable [3H]NAD p
same,"cytotoxicity at 0.5 h, 500 µM",[4],7%
same,"cytotoxicity at 0.5 h, 2000 µM",[4],13%
same,"cytotoxicity at 0.5 h, 5000 µM",[4],10%
same,"cytotoxicity at 0.5 h, 10000 µM",[4],22%
same,"cytotoxicity at 18 h, 500 µM",[4],8%
same,"cytotoxicity at 18 h, 2000 µM",[4],29%
same,"cytotoxicity at 18 h, 5000 µM",[4],58%
same,"cytotoxicity at 18 h, 10000 µM",[4],88%
same,Effect of adding metoclopramide to CDDP on AUC,[2]; schedule A: metoclopramide 2.0 mg/kg i.p. one hour before CDDP 7.5 mg/kg i.p.,did not give any additive effect
same,Effect of adding metoclopramide to CDDP on AUC,"[2]; schedule B: metoclopramide 2.0 mg/kg x3, concomitant to CDDP 7.5 mg/kg i.p. and 24 hr and 48 hr after",potentiated the effect of CDDP
same,"Reduction in AUC (area under plotted tumor growth curves), agent given alone",[2]; 21 days,In neither schedule A nor B did metoclopramide alone induce any significant reduction in AUC
"Cc1ccc(C2(O)CCN(CCCC(=O)c3ccc(F)cc3)CC2)cc1 [Moperone, 1(4-fluorophenyl)-4-[4-hydroxy-4(4-methylphenyl)1-piperidinyl]-1-butanone]",ADPRT Activity,[3]; 100 μM agent,529 cpm TCA precipitable [3H]NAD p
same,ADPRT Activity,[3]; 500 μM agent,712 cpm TCA precipitable [3H]NAD p
same,ADPRT Activity,[3]; 1000 μM agent,1112 cpm TCA precipitable [3H]NAD p
same,"cytotoxicity at 0.5 h, 100 µM",[4]; [8],5%
same,"cytotoxicity at 0.5 h, 500 µM",[4]; [9],7%
same,"cytotoxicity at 0.5 h, 1000 µM","[4]; 1000 μM agent, 30 min incubation, HML, read-out: % Dead Cells 30 min",26%
same,"cytotoxicity at 18 h, 1000 µM","[4]; 1000 μM agent, 18 hr incubation, HML, read-out: % Dead Cells 18 hr",100%
NC(=O)c1cccnc1 [Nicotinamide],Radiosensitization of adenocarcinoma,[6],will radiosensitize
CC(CN(C)C)CN1c2ccccc2Sc2ccccc21 (centres unmarked) [Trimeprazine],ADPRT Activity,[3]; 100 μM agent,639 cpm TCA precipitable [3H]NAD p
same,ADPRT Activity,[3]; 500 μM agent,571 cpm TCA precipitable [3H]NAD p
same,"cytotoxicity at 0.5 h, 500 µM",[4],95%
same,"cytotoxicity at 0.5 h, 100 µM",[4]; [8],7%
"NCCCCCCNS(=O)(=O)c1cccc2ccccc12 [W-5, N(6-aminohexyl)-naphthalenesulfonamide]",ADPRT Activity,[3]; 50 μM agent,395 cpm TCA precipitable [3H]NAD p
same,ADPRT Activity,[3]; 100 μM agent,415 cpm TCA precipitable [3H]NAD p
same,ADPRT Activity,[3]; 200 μM agent,425 cpm TCA precipitable [3H]NAD p
same,"cytotoxicity at 0.5 h, 50 µM","[4]; 50 μM agent, 30 min incubation, HML, read-out: % Dead Cells 30 min",< 5%
same,"cytotoxicity at 0.5 h, 100 µM",[4]; [8],< 5%
same,"cytotoxicity at 0.5 h, 200 µM","[4]; 200 μM agent, 30 min incubation, HML, read-out: % Dead Cells 30 min",7%
same,Calmodulin antagonist activity at fixed concentration,[7]; 50 μM,inactive
same,IC50,"[7]; Hidaka et al, Proc. Natl. Acad. Sci. U.S.A. 78:4354-4357, 1981, read-out: IC50 dose as calmodulin antagonist",~250 µM
"NCCCCCCNS(=O)(=O)c1cccc2c(Cl)cccc12 [W-7, N(6-aminohexyl)-5-chloro-1-naphthalenesulfonamide]",ADPRT Activity,[3]; 50 μM agent,750 cpm TCA precipitable [3H]NAD p
same,ADPRT Activity,[3]; 100 μM agent,910 cpm TCA precipitable [3H]NAD p
same,ADPRT Activity,[3]; 200 μM agent,1480 cpm TCA precipitable [3H]NAD p
same,"cytotoxicity at 0.5 h, 50 µM",[4],10%
same,"cytotoxicity at 0.5 h, 100 µM",[4],25%
same,"cytotoxicity at 0.5 h, 200 µM",[4],90%
NC(=O)c1ccccc1 [benzamide],Radiosensitization of adenocarcinoma,[6],totally ineffective
O=C(O)c1ccccc1 [benzoic acid],Inhibition of ADPRT,[1],failed to inhibit ADPRT
O=C(O)c1ccncc1 [isonicotinic acid],Inhibition of ADPRT,[1],failed to inhibit ADPRT
"pyrazine 1,2-dicarboxylic acid",Inhibition of ADPRT,[1],failed to inhibit ADPRT
